The assay has as its target T1, glucagon receptor (Homo sapiens, UniProt P47871).
T1 construct: expressed in transfected cells
As to the kind of experiment: Assay (I) Glucagon activity (cAMP biosensor, FLIPR). Format: cell-based. The note with it: HEK-293 cells with cloned glucagon receptor and cAMP biosensor; end point after 6 minutes. Put shortly: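 HEK-293 cells expressing glucagon receptor with membrane cAMP biosensor (ACTOne), calcium-dye loaded with probenecid and a PDE inhibitor.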

*1 amine or outer side, *2 acyl side, *3 side chain or, on linkers, in order; H or OH if unused. Where a SMILES comes first, the peptide text is derived from it. Side-chain parts run from the residue outwards. γGlu = O=C(O)[C@H](CCC(=O)[*:2])N[*:1]

T1 sequence (P47871 26-477): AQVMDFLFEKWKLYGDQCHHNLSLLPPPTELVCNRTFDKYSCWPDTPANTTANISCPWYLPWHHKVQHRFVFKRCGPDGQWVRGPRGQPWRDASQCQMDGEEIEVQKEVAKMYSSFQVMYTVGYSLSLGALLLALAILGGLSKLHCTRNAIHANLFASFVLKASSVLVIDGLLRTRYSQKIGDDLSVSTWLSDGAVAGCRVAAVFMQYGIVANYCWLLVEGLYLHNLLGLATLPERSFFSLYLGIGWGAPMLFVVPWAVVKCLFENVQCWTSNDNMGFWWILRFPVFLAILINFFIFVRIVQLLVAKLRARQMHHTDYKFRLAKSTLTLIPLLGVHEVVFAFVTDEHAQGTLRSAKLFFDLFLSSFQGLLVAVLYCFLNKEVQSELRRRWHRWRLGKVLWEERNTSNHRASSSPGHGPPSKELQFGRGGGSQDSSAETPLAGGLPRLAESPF

Take `CC(=O)N[C@@H](CCC(=O)N[C@@H](CCC(=O)N[C@@H](CCC(=O)N[C@@H](CCC(=O)NCCCC[C@H](NC(=O)[C@@H](NC(=O)[C@H](Cc1ccccc1)NC(=O)[C@H](CC(=O)O)NC(=O)[C@H](C)NC(=O)[C@H](C)NC(=O)[C@H](CCCNC(=N)N)NC(=O)[C@H](CCCNC(=N)N)NC(=O)[C@H](CO)NC(=O)[C@H](CC(=O)O)NC(=O)[C@H](CC(C)C)NC(=O)[C@H](Cc1ccc(O)cc1)NC(=O)[C@H](CCCCN)NC(=O)[C@H](CO)NC(=O)[C@H](Cc1ccc(O)cc1)NC(=O)[C@H](CC(=O)O)NC(=O)[C@H](CO)NC(=O)[C@@H](NC(=O)[C@H](Cc1ccccc1)NC(=O)[C@@H](NC(=O)CNC(=O)[C@H](Cc1c[nH]cn1)NC(=O)[C@H](CO)NC(=O)[C@@H](N)Cc1c[nH]cn1)[C@@H](C)O)[C@@H](C)O)C(C)C)C(=O)N[C@@H](Cc1c[nH]c2ccccc12)C(=O)N[C@@H](CC(C)C)C(=O)N[C@@H](CC(C)C)C(=O)N[C@@H](CO)C(=O)N[C@H](C(=O)O)[C@@H](C)O)C(=O)O)C(=O)O)C(=O)O)C(=O)O` [Example 4, N^ε24-[(4S)-4-[[(4S)-4-[[(4S)-4-[[(4S)-4-acetamido-4-carboxybutanoyl]amino]-4-carboxybutanoyl]amino]-4-carboxybutanoyl]amino]-4-carboxybutanoyl]-[His3,Ala20,Lys24,Leu27,Ser28]-Glucagon] (H-HSHGTFTSDYSKYLDSRRAADFVK([γGlu-γGlu-γGlu-γGlu-Ac])WLLST-OH): the EC50 (in general, the concentration that produces a half-maximal response) is 0.0145 nM.

In turn, `CC[C@H](C)[C@H](NC(=O)[C@H](CC(=O)O)NC(=O)[C@H](CC(C)C)NC(=O)[C@H](Cc1ccc(O)cc1)NC(=O)[C@H](CCCCN)NC(=O)[C@H](CO)NC(=O)[C@H](Cc1ccc(O)cc1)NC(=O)[C@H](CC(=O)O)NC(=O)[C@H](CO)NC(=O)[C@@H](NC(=O)[C@H](Cc1ccccc1)NC(=O)[C@@H](NC(=O)CNC(=O)[C@H](Cc1c[nH]cn1)NC(=O)[C@H](CO)NC(=O)[C@@H](N)Cc1c[nH]cn1)[C@@H](C)O)[C@@H](C)O)C(=O)N[C@@H](CCCNC(=N)N)C(=O)N[C@@H](CCCNC(=N)N)C(=O)N[C@@H](C)C(=O)N[C@@H](C)C(=O)N[C@@H](CC(=O)O)C(=O)N[C@@H](Cc1ccccc1)C(=O)N[C@H](C(=O)N[C@@H](CCCCNC(=O)CC[C@H](NC(=O)CC[C@H](NC(=O)CC[C@H](NC(=O)CC[C@H](NC(C)=O)C(=O)O)C(=O)O)C(=O)O)C(=O)O)C(=O)N[C@@H](Cc1c[nH]c2ccccc12)C(=O)N[C@@H](CC(C)C)C(=O)N[C@@H](CC(C)C)C(=O)N[C@@H](CO)C(=O)N[C@H](C(=O)O)[C@@H](C)O)C(C)C` [Example 11] (H-HSHGTFTSDYSKYLDIRRAADFVK([γGlu-γGlu-γGlu-γGlu-Ac])WLLST-OH) came in with an EC50 of 0.0124 nM.

`CC(C)C[C@H](NC(=O)[C@H](Cc1c[nH]c2ccccc12)NC(=O)[C@H](CCCCNC(=O)CC[C@H](NC(=O)CC[C@H](NC(=O)CC[C@H](NC(=O)CC[C@H](N)C(=O)O)C(=O)O)C(=O)O)C(=O)O)NC(=O)[C@@H](NC(=O)[C@H](Cc1ccccc1)NC(=O)[C@H](CC(=O)O)NC(=O)[C@H](C)NC(=O)[C@H](C)NC(=O)[C@H](CCCNC(=N)N)NC(=O)[C@H](CCCNC(=N)N)NC(=O)[C@@H](NC(=O)[C@H](CC(=O)O)NC(=O)[C@H](CC(C)C)NC(=O)[C@H](Cc1ccc(O)cc1)NC(=O)[C@H](CCCCN)NC(=O)[C@H](CO)NC(=O)[C@H](Cc1ccc(O)cc1)NC(=O)[C@H](CC(=O)O)NC(=O)[C@H](CO)NC(=O)[C@@H](NC(=O)[C@H](Cc1ccccc1)NC(=O)[C@@H](NC(=O)CNC(=O)[C@H](Cc1c[nH]cn1)NC(=O)[C@H](CO)NC(=O)[C@@H](N)Cc1c[nH]cn1)[C@@H](C)O)[C@@H](C)O)[C@@H](C)O)C(C)C)C(=O)N[C@@H](CC(C)C)C(=O)N[C@@H](CO)C(=O)N[C@H](C(=O)O)[C@@H](C)O` [Example 7, N^ε24-[(4S)-4-[[(4S)-4-[[(4S)-4-[[(4S)-4-amino-4-carboxybutanoyl]amino]-4-carboxybutanoyl]amino]-4-carboxybutanoyl]amino]-4-carboxybutanoyl]-[His3,Thr16,Ala20,Lys24,Leu27,Ser28]-Glucagon] (H-HSHGTFTSDYSKYLDTRRAADFVK([γGlu-γGlu-γGlu-γGlu])WLLST-OH): the EC50 stood at 0.0243 nM.

Consider `CC(=O)N[C@@H](CCC(=O)N[C@@H](CCC(=O)N[C@@H](CCC(=O)N[C@@H](CCC(=O)NCCCC[C@H](NC(=O)[C@@H](NC(=O)[C@H](Cc1ccccc1)NC(=O)[C@H](CCC(=O)O)NC(=O)[C@H](CCC(N)=O)NC(=O)[C@H](C)NC(=O)[C@H](CCCNC(=N)N)NC(=O)[C@H](CCCNC(=N)N)NC(=O)[C@H](CO)NC(=O)[C@H](CCC(=O)O)NC(=O)[C@H](CC(C)C)NC(=O)[C@H](Cc1ccc(O)cc1)NC(=O)[C@H](CCCCN)NC(=O)[C@H](CO)NC(=O)[C@H](Cc1ccc(O)cc1)NC(=O)[C@H](CC(=O)O)NC(=O)[C@H](CO)NC(=O)[C@@H](NC(=O)[C@H](Cc1ccccc1)NC(=O)[C@@H](NC(=O)CNC(=O)[C@H](CCC(N)=O)NC(=O)[C@H](CO)NC(=O)[C@@H](N)Cc1c[nH]cn1)[C@@H](C)O)[C@@H](C)O)C(C)C)C(=O)N[C@@H](Cc1c[nH]c2ccccc12)C(=O)N[C@@H](CC(C)C)C(=O)N[C@@H](CC(C)C)C(=O)N[C@@H](CO)C(=O)N[C@H](C(=O)O)[C@@H](C)O)C(=O)O)C(=O)O)C(=O)O)C(=O)O` [Example 22, N^ε24-[(4S)-4-[[(4S)-4-[[(4S)-4-[[(4S)-4-acetamido-4-carboxybutanoyl]amino]-4-carboxybutanoyl]amino]-4-carboxybutanoyl]amino]-4-carboxybutanoyl]-[Glu15,Glu21,Lys24,Leu27,Ser28]-Glucagon] (H-HSQGTFTSDYSKYLESRRAQEFVK([γGlu-γGlu-γGlu-γGlu-Ac])WLLST-OH), for which a half-maximal effect (EC50) was put at 0.0055 nM.

The compound `CC(=O)N[C@@H](CCC(=O)N[C@@H](CCC(=O)N[C@@H](CCC(=O)N[C@@H](CCC(=O)NCCCC[C@H](NC(=O)[C@@H](NC(=O)[C@H](Cc1ccccc1)NC(=O)[C@H](CC(=O)O)NC(=O)[C@H](CCC(N)=O)NC(=O)[C@H](C)NC(=O)[C@H](CCCNC(=N)N)NC(=O)[C@H](CCCNC(=N)N)NC(=O)[C@@H](NC(=O)[C@H](CC(=O)O)NC(=O)[C@H](CC(C)C)NC(=O)[C@H](Cc1ccc(O)cc1)NC(=O)[C@H](CCCCN)NC(=O)[C@H](CO)NC(=O)[C@H](Cc1ccc(O)cc1)NC(=O)[C@H](CC(=O)O)NC(=O)[C@H](CO)NC(=O)[C@@H](NC(=O)[C@H](Cc1ccccc1)NC(=O)[C@@H](NC(=O)CNC(=O)[C@H](CCC(N)=O)NC(=O)[C@H](CO)NC(=O)[C@@H](N)Cc1c[nH]cn1)[C@@H](C)O)[C@@H](C)O)[C@@H](C)O)C(C)C)C(=O)N[C@@H](Cc1c[nH]c2ccccc12)C(=O)N[C@@H](CC(C)C)C(=O)N[C@@H](CC(C)C)C(=O)N[C@@H](CO)C(=O)N[C@H](C(=O)O)[C@@H](C)O)C(=O)O)C(=O)O)C(=O)O)C(=O)O` [Example 30] showed an EC50 of 0.0065 nM.

For `CC(=O)N[C@@H](CCC(=O)N[C@@H](CCC(=O)N[C@@H](CCC(=O)N[C@@H](CCC(=O)NCCCC[C@H](NC(=O)[C@@H](NC(=O)[C@H](Cc1ccccc1)NC(=O)[C@H](CC(=O)O)NC(=O)[C@H](CCC(N)=O)NC(=O)[C@H](C)NC(=O)[C@H](CCCNC(=N)N)NC(=O)[C@H](CCCNC(=N)N)NC(=O)[C@H](Cc1ccc(O)cc1)NC(=O)[C@H](CC(=O)O)NC(=O)[C@H](CC(C)C)NC(=O)[C@H](Cc1ccc(O)cc1)NC(=O)[C@H](CCCCN)NC(=O)[C@H](CO)NC(=O)[C@H](Cc1ccc(O)cc1)NC(=O)[C@H](CC(=O)O)NC(=O)[C@H](CO)NC(=O)[C@@H](NC(=O)[C@H](Cc1ccccc1)NC(=O)[C@@H](NC(=O)CNC(=O)[C@H](CCC(N)=O)NC(=O)[C@H](CO)NC(=O)[C@@H](N)Cc1c[nH]cn1)[C@@H](C)O)[C@@H](C)O)C(C)C)C(=O)N[C@@H](Cc1c[nH]c2ccccc12)C(=O)N[C@@H](CC(C)C)C(=O)N[C@@H](CC(C)C)C(=O)N[C@@H](CO)C(=O)N[C@H](C(=O)O)[C@@H](C)O)C(=O)O)C(=O)O)C(=O)O)C(=O)O` [Example 37, N^ε24-[(4S)-4-[[(4S)-4-[[(4S)-4-[[(4S)-4-acetamido-4-carboxybutanoyl]amino]-4-carboxybutanoyl]amino]-4-carbox[…]ybutanoyl]amino]-4-carboxybutanoyl]-[Tyr16,Lys24,Leu27,Ser28]-Glucagon], the EC50 worked out at 0.003 nM.

`CC[C@H](C)[C@H](NC(=O)[C@H](CC(=O)O)NC(=O)[C@H](CC(C)C)NC(=O)[C@H](Cc1ccc(O)cc1)NC(=O)[C@H](CCCNC(=N)N)NC(=O)[C@H](CO)NC(=O)[C@H](Cc1ccc(O)cc1)NC(=O)[C@H](CC(=O)O)NC(=O)[C@H](CO)NC(=O)[C@@H](NC(=O)[C@H](Cc1ccccc1)NC(=O)[C@@H](NC(=O)CNC(=O)[C@H](Cc1c[nH]cn1)NC(=O)[C@H](CO)NC(=O)[C@@H](N)Cc1c[nH]cn1)[C@@H](C)O)[C@@H](C)O)C(=O)N[C@@H](CCCNC(=N)N)C(=O)N[C@@H](CCCNC(=N)N)C(=O)N[C@@H](C)C(=O)N[C@@H](C)C(=O)N[C@@H](CC(=O)O)C(=O)N[C@@H](Cc1ccccc1)C(=O)N[C@H](C(=O)N[C@@H](CCCCNC(=O)CC[C@H](NC(=O)CC[C@H](NC(=O)CC[C@H](NC(=O)CC[C@H](N)C(=O)O)C(=O)O)C(=O)O)C(=O)O)C(=O)N[C@@H](Cc1c[nH]c2ccccc12)C(=O)N[C@@H](CC(C)C)C(=O)N[C@@H](CC(C)C)C(=O)N[C@@H](CO)C(=O)N[C@H](C(=O)O)[C@@H](C)O)C(C)C` [Example 8, N^ε24-[(4S)-4-[[(4S)-4-[[(4S)-4-[[(4S)-4-amino-4-carboxybutanoyl]amino]-4-carboxybutanoyl]amino]-4-carboxybutanoyl]amino]-4-carboxybutanoyl]-[His3,Arg12,Ile16,Ala20,Lys24,Leu27,Ser28]-Glucagon] (H-HSHGTFTSDYSRYLDIRRAADFVK([γGlu-γGlu-γGlu-γGlu])WLLST-OH): the EC50 came to 0.0269 nM. This EC50 lies about 9-fold higher than the previous one.

These data come from patent US20140031278A1, “Novel Glucagon Analogues” (NOVO NORDISK A/S, priority 2011, published 2014).
